# Target: T1, h-cGAS (Homo sapiens, UniProt Q8N884)
# T1 construct: The final concentration of full-length h-cGAS, dsDNA, ATP, and GTP were 100 nM
# Assay: cGAS biochemical assay, RapidFire 365 mass spectrometry (RF-MS)
# Settings: full-length h-cGAS 100 nM, dsDNA 25 nM, ATP and GTP 100 μM, 7 h at RT
# T1 sequence (Q8N884 whole entry): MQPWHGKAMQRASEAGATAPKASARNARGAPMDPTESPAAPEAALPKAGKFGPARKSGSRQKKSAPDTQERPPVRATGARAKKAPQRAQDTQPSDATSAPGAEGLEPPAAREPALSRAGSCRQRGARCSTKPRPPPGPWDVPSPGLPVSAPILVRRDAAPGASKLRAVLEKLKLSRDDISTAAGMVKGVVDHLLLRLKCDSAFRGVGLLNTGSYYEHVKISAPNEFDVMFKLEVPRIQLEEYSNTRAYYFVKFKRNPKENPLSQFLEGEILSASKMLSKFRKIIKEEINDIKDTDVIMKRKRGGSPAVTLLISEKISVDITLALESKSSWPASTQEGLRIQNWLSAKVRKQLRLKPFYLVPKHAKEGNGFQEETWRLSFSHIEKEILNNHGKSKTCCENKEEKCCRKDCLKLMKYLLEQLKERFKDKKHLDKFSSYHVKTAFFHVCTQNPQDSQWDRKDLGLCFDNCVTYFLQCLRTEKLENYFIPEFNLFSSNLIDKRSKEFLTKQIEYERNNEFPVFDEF
row,IC50 [nM],Compound
1,323,C[C@@H]1CN(C(=O)CO)Cc2c1[nH]c1c(Cl)c(Cl)ccc21 [TDI-007576]
2,352,N#Cc1cc(Cl)c(Cl)c2[nH]c3c(c12)CN(C(=O)CO)CC3 [TDI-007586]
3,84.8,O=C(CO)N1CCc2[nH]c3c(Cl)c(Cl)cc(-c4ccoc4)c3c2C1 [TDI-008069]
4,97.5,O=C(CO)N1CCc2[nH]c3c(Cl)c(Cl)cc(-c4ccncc4)c3c2C1 [TDI-008072]
5,469,Cn1cccc1-c1cc(Cl)c(Cl)c2[nH]c3c(c12)CN(C(=O)CO)CC3 [TDI-008075]
6,11400,Cc1[nH]ncc1-c1cc(Cl)c(Cl)c2[nH]c3c(c12)CN(C(=O)CO)CC3 [TDI-008076]
7,31.8,O=C(CO)N1CCc2[nH]c3c(Cl)c(Cl)cc(C4=CCCCO4)c3c2C1 [TDI-008078]
8,890,O=C(CO)N1CCc2[nH]c3c(Cl)c(Cl)cc(C4=CCOCC4)c3c2C1 [TDI-008079]
9,66.8,O=C(CO)N1CCc2[nH]c3c(Cl)c(Cl)cc(-c4ccsc4)c3c2C1 [TDI-008080]
10,47.9,O=C(CO)N1CCc2[nH]c3c(Cl)c(Cl)cc(-c4cccs4)c3c2C1 [TDI-008081]
11,322,Nc1ccccc1-c1cc(Cl)c(Cl)c2[nH]c3c(c12)CN(C(=O)CO)CC3 [TDI-008082]
12,20.3,Nc1ccc(-c2cc(Cl)c(Cl)c3[nH]c4c(c23)CN(C(=O)CO)CC4)cc1 [TDI-008083]
13,258,O=C(CO)N1CCc2[nH]c3c(Cl)c(Cl)cc(-c4ccccc4O)c3c2C1 [TDI-008084]
14,30.9,O=C(CO)N1CCc2[nH]c3c(Cl)c(Cl)cc(-c4cccc(O)c4)c3c2C1 [TDI-008085]
15,2050,Nc1ncccc1-c1cc(Cl)c(Cl)c2[nH]c3c(c12)CN(C(=O)CO)CC3 [TDI-008086]
16,56.9,Cc1ncc(-c2cc(Cl)c(Cl)c3[nH]c4c(c23)CN(C(=O)CO)CC4)cn1 [TDI-008088]
17,64.4,O=C(CO)N1CCc2[nH]c3c(Cl)c(Cl)cc(-c4ccc(F)cc4)c3c2C1 [TDI-008089]
18,26.7,O=C(CO)N1CCc2[nH]c3c(Cl)c(Cl)cc(-c4ccccc4F)c3c2C1 [TDI-008090]
19,31,O=C(CO)N1CCc2[nH]c3c(Cl)c(Cl)cc(-c4cccc(F)c4)c3c2C1 [TDI-008091]

row,IC50 [nM],Compound
1,1840,Cc1nn(C)cc1-c1cc(Cl)c(Cl)c2[nH]c3c(c12)CN(C(=O)CO)CC3 [TDI-008092]
2,330,Cc1cc(-c2cc(Cl)c(Cl)c3[nH]c4c(c23)CN(C(=O)CO)CC4)nn1C [TDI-008093]
3,371,Cc1c(-c2cc(Cl)c(Cl)c3[nH]c4c(c23)CN(C(=O)CO)CC4)cnn1C [TDI-008094]
4,929,Cc1cc(-c2cc(Cl)c(Cl)c3[nH]c4c(c23)CN(C(=O)CO)CC4)n(C)n1 [TDI-008095]
5,5950,Cc1noc(C)c1-c1cc(Cl)c(Cl)c2[nH]c3c(c12)CN(C(=O)CO)CC3 [TDI-008096]
6,42.2,N#Cc1ccccc1-c1cc(Cl)c(Cl)c2[nH]c3c(c12)CN(C(=O)CO)CC3 [TDI-008097]
7,85.3,N#Cc1cccc(-c2cc(Cl)c(Cl)c3[nH]c4c(c23)CN(C(=O)CO)CC4)c1 [TDI-008098]
8,5270,N#Cc1ncc(-c2cc(Cl)c(Cl)c3[nH]c4c(c23)CN(C(=O)CO)CC4)cn1 [TDI-008100]
9,105,CNc1ccc(-c2cc(Cl)c(Cl)c3[nH]c4c(c23)CN(C(=O)CO)CC4)cn1 [TDI-008101]
10,40.2,COc1cccc(-c2cc(Cl)c(Cl)c3[nH]c4c(c23)CN(C(=O)CO)CC4)n1 [TDI-008102]
11,44.1,COc1cccnc1-c1cc(Cl)c(Cl)c2[nH]c3c(c12)CN(C(=O)CO)CC3 [TDI-008103]
12,95.2,COc1ccnc(-c2cc(Cl)c(Cl)c3[nH]c4c(c23)CN(C(=O)CO)CC4)c1 [TDI-008104]
13,107,COc1ccc(-c2cc(Cl)c(Cl)c3[nH]c4c(c23)CN(C(=O)CO)CC4)nc1 [TDI-008105]
14,49.3,COc1cc(-c2cc(Cl)c(Cl)c3[nH]c4c(c23)CN(C(=O)CO)CC4)ccn1 [TDI-008106]
15,52.4,COc1cncc(-c2cc(Cl)c(Cl)c3[nH]c4c(c23)CN(C(=O)CO)CC4)c1 [TDI-008107]
16,552,Cn1cc(-c2cc(Cl)c(Cl)c3[nH]c4c(c23)CN(C(=O)CO)CC4)ccc1=O [TDI-008108]
17,2330,COc1cnccc1-c1cc(Cl)c(Cl)c2[nH]c3c(c12)CN(C(=O)CO)CC3 [TDI-008109]
18,2970,COc1ncccc1-c1cc(Cl)c(Cl)c2[nH]c3c(c12)CN(C(=O)CO)CC3 [TDI-008110]
19,268,CNc1ncc(-c2cc(Cl)c(Cl)c3[nH]c4c(c23)CN(C(=O)CO)CC4)cn1 [TDI-008111]

row,IC50 [nM],Compound
1,201,COc1ncc(-c2cc(Cl)c(Cl)c3[nH]c4c(c23)CN(C(=O)CO)CC4)cn1 [TDI-008112]
2,962,Cc1nc(C)c(-c2cc(Cl)c(Cl)c3[nH]c4c(c23)CN(C(=O)CO)CC4)s1 [TDI-008113]
3,62.2,COc1ncc(-c2cc(Cl)c(Cl)c3[nH]c4c(c23)CN(C(=O)CO)CC4)s1 [TDI-008114]
4,45.1,O=C(CO)N1CCc2[nH]c3c(Cl)c(Cl)cc(-c4cnn(C(F)F)c4)c3c2C1 [TDI-008115]
5,76.8,NC(=O)c1cccc(-c2cc(Cl)c(Cl)c3[nH]c4c(c23)CN(C(=O)CO)CC4)c1 [TDI-008118]
6,438,CN(C)c1cccc(-c2cc(Cl)c(Cl)c3[nH]c4c(c23)CN(C(=O)CO)CC4)c1 [TDI-008120]
7,350,CN(C)Cc1cc(Cl)c(Cl)c2[nH]c3c(c12)CN(C(=O)CO)CC3 [TDI-008437]
8,112,COCCc1cc(Cl)c(Cl)c2[nH]c3c(c12)CN(C(=O)CO)CC3 [TDI-008438]
9,663,O=C(CO)N1CCc2[nH]c3c(Cl)c(Cl)cc(CC4CCCC4)c3c2C1 [TDI-008439]
10,2230,O=C(CO)N1CCc2[nH]c3c(Cl)c(Cl)cc(CN4CCCC4)c3c2C1 [TDI-008440]
11,5220,O=C(CO)N1CCc2[nH]c3c(Cl)c(Cl)cc(CN4CCCCC4)c3c2C1 [TDI-008441]
12,706,O=C(CO)N1CCc2[nH]c3c(Cl)c(Cl)cc(CN4CCOCC4)c3c2C1 [TDI-008442]
13,586,O=C(CO)N1CCc2[nH]c3c(Cl)c(Cl)cc(Cc4ccc(-n5cccn5)cc4)c3c2C1 [TDI-008443]
14,3240,Cn1nccc1-c1cc(Cl)c(Cl)c2[nH]c3c(c12)CN(C(=O)CO)CC3 [TDI-008444]
15,35,Cc1cc(-c2cc(Cl)c(Cl)c3[nH]c4c(c23)CN(C(=O)CO)CC4)ccn1 [TDI-008445]
16,901,Cc1ncccc1-c1cc(Cl)c(Cl)c2[nH]c3c(c12)CN(C(=O)CO)CC3 [TDI-008446]
17,24.9,Cc1cncc(-c2cc(Cl)c(Cl)c3[nH]c4c(c23)CN(C(=O)CO)CC4)c1 [TDI-008447]
18,25.9,O=C(CO)N1CCc2[nH]c3c(Cl)c(Cl)cc(-c4cncc(F)c4)c3c2C1 [TDI-008448]

row,Compound,IC50 [nM]
1,Cn1c2c(c3c(-c4cn[nH]c4)cc(Cl)c(Cl)c31)CN(C(=O)CO)CC2 [TDI-007945],125
2,COCC(=O)N1CCc2c(c3c(-c4cn[nH]c4)cc(Cl)c(Cl)c3n2C)C1 [TDI-008026],203
3,COCC(=O)N1CCc2c(c3ccc(Br)c(F)c3n2C)C1 [TDI-008034],401
4,Cn1c2c(c3ccc(Br)c(F)c31)CN(C(=O)CO)CC2 [TDI-008061],131
5,CCn1c2c(c3ccc(Br)c(F)c31)CN(C(=O)CO)CC2 [TDI-008062],1030

# Source: US11414422B2, “Substituted pyrido[4,3-b]indoles and azepino[4,5-b]indoles as inhibitors of cGAS” (The Rockefeller University, priority 2018, dated 2022)
